Assays:
CRTH2 [1] = molecular target: T1, CRTH2 (Homo sapiens, UniProt Q9Y5Y4); assay: Determination of Ki (radioligand binding assay, equilibrium competition against [3H]PGD2); parameters: expressed in transfected cells; host or cells: HEK293 (EBNA) cells, membrane preparation; details: average of at least three independent dose response experiments
T1 sequence (Q9Y5Y4 1-395): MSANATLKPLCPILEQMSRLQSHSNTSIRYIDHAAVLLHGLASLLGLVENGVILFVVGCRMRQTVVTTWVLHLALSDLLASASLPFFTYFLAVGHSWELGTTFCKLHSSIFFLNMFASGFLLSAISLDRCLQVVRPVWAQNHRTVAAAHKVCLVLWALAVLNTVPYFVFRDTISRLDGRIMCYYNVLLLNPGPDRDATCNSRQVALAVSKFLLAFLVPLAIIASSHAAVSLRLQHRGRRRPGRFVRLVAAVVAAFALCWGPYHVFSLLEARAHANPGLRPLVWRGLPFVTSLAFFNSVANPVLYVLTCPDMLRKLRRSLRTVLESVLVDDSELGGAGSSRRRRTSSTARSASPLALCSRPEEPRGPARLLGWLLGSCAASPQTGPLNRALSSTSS
Description: The inhibitory activity can be investigated by a radioligand binding assay (Sawyer et al., Br. J. Pharmocol 2002, 137, 1163-72). The radioligand binding assay was performed at room temperature in binding buffer (10 mM HEPES/KOH pH […], with protease inhibitor cocktail tablets), containing 1.5 nM [^3H]PGD2 (Amersham, 156 Cie/mmol), and 10 μg of hCRTH2 HEK293 (EBNA) cell membrane protein in a final volume of 100 μl in 96 well plates (Corning, USA). Non-specific binding was determined in the presence of 1 μM PGD2 (Cayman, USA). Competing spiro-indolinones were diluted in dimethylsulphoxide so that the total volume of dimethylsulfoxide was kept constant at 1% dimethylsulphoxide (Me2SO) Serial dilutions of 100 μM and […] were prepared. 10 μl each of these spiro-indolinone stock solutions were added. Incubation (60 min at room temperature) was terminated by rapid filtration through 96 wells hydrophobic GF/C Unifilter plates (Whatman, USA). Filters were washed twice with 250 μl of Tris-HCl pH 7.4, 10 mM MnCl2, and residual radioligand bound to the filters was mixed to 100 μl of liquid scintillation cocktail (Optiphase Supermix, Perkin Elmer, USA) and binding activity was determined by counting residual radioligand using a 1450 Micro-beta scintillation counter (Wallac, UK). The following representative compounds were tested. All inhibited the binding of PGD2 to CRTH2 by more than 70%. • (1′-benzyl-5-chloro-2,2′,5′-trioxospiro[indole-3,3′-pyrrolidin]-1(2H)-yl)acetic acid • (1′-benzyl-5-fluoro-2,2′,5′-trioxospiro[indole-3,3′-pyrrolidin]-1(2H)-yl)acetic acid • 4-(1′-allyl-5-chloro-2,2′,5′-trioxospiro[indole-3,3′-pyrrolidin]-1(2H)-yl)butanoic acid • [5-chloro-1′-(2-methoxyethyl)-2,2′,5′-trioxospiro[indole-3,3′-pyrrolidin]-1(2H)-yl]acetic acid • 4-(1′-benzyl-5-chloro-2,2′,5′-trioxospiro[indole-3,3′-pyrrolidin]-1(2H)-yl)butanoic acid • (1′-benzyl-5-methoxy-2,2′,5′-trioxospiro[indole-3,3′-pyrrolidin]-1(2H)-yl)acetic acid • [5-fluoro-1′-[(2-methoxyethoxy)methyl]-2,2′,5′-trioxospiro[indole-3,3′-pyrrolidin]-1(2H)-yl]acetic acid • 4-(1′-allyl-5-fluoro-2,2′,5′-trioxospiro[indole-3,3′-pyrrolidin]-1(2H)-yl)butanoic acid • 4-(1′-benzyl-5-fluoro-2,2′,5′-trioxospiro[indole-3,3′-pyrrolidin]-1(2H)-yl)butanoic acid
Ki values were determined by equilibrium competition binding experiments against [^3H]PGD2. Ki values were calculated from the formula below and represent the average of at least three independent dose response experiments. The Ki values give the ligand concentrations necessary to inhibit 50% of the binding of [^3H]PGD2 to CRTH2. Ki=IC50/(1+[Concentration of Ligand]/Kd)]
All experiments were performed in 96 well plates, in a final volume of 100 μl according to the above described filtration assay. The concentration of membranes and 3 [H]PGD2, as well as the positive and negative controls were identical to the conditions described above.

[2] = test system: DK-PGD2-induced vascular leakage; assay: Model of DK-PGD2-induced vascular leakage in mice; format: in vivo, Balb/c mice; details: Mus musculus, 1.5 h; dose of 30 mg/kg; 30 min before DK-PGD2 challenge; Evans blue extravasation
Description: This test is described in Takeshita et al. (2004). Balb/c mice (Elevage Janvier) (8 week old) received an intradermal injection of DK-PGD2 (10 μg in 30 μl) on their shaved backs and an intravenous injection of Evans blue solution (25 mg/kg) 30 min after administration of the test molecules (spiro derivative). Ninety minutes after the challenge, the animals were sacrificed. The skin of the back was removed and blood was sampled. The extravasated dye (punch diameter: 5 mm) was extracted by 0.2 ml of formamide and was quantified by fluorescence (E1: 585 nm, E2: 660 nm). The Evans Blue extravasation ratio was expressed as the following: skin/serum×1000.

CRTH2 [3] = molecular target: T1, CRTH2; assay: Radioligand binding assay ([3H]PGD2, hCRTH2 HEK293 (EBNA) cell membranes); parameters: expressed in transfected cells; host or cells: HEK293 (EBNA) cells, membrane preparation; details: 1.5 nM [3H]PGD2, 10 μg hCRTH2 HEK293 (EBNA) membrane protein, 60 min at room temperature
Excerpt: Human CRTH2 cDNA was amplified by PCR using a human urinary bladder cDNA library as a template and specific primers containing HindIII and BamHI restriction sites for cloning into the pCEP4 vector (Invitrogen). The vector construction is described in detail in Sawyer et al., Br. J. Pharmocol 2002, 137, 1163-72. The nucleotide sequence of the cloned cDNA was identical the previously reported hCRTH2 sequence (Nagata et al, 1999, J. Immunol. 162, 1278-1286).
HEK293 (EBNA) cells were transfected with the pCEP4-hCRTH2 construct using the calcium phosphate technique. Cells were maintained in culture at 37° C. in an atmosphere of 5% CO2 in Dulbecco's modified Eagle's F12 medium (Invitrogen), containing 10% heat-inactivated foetal calf serum (TerraCell International, Canada), 2 mM Glutamine, 100 units/ml of penicillin and 100 μg/ml streptomycin (Invitrogen). 48 hours after the transfection, cells were grown in presence of 300 μg/ml of Hygromycin B (Invitrogen) for 4 weeks and antibiotic resistant cells were amplified for cell membrane preparation.
Adherent HEK293 (EBNA) cells expressing hCRTH2 were cultured in 225 cm^2 cell culture flasks (Corning, USA) in 30 ml of medium. After two rinses of phosphate buffered saline (PBS), cells were harvested in 10 ml of PBS containing 1 mM EDTA, centrifuged at 500×g for 5 min at 4° C. and frozen at −80° C. The pellet was re-suspended in 50 mM Tris-HCl, pH 7.4, 2 mM EDTA, 250 mM Sucrose, containing protease inhibitor cocktail tablets, (Complete EDTA-free, Roche, Germany) and incubated 30 min at 4° C. Cells were disrupted by nitrogen cavitation (Parr Instruments, USA) at 4° C. (800 p.s.i. for 30 min), and centrifuged at 500×g for 10 min at 4° C. Pellet containing nuclei and cellular debris was discarded and supernatant was centrifuged 60 min at 4° C. at 45000×g. Membrane pellet was re-suspended in storage buffer (10 mM HEPES/KOH pH 7.4, 1 mM EDTA, 250 mM sucrose, protease inhibitor cocktail tablets) using Dounce homogenization and frozen in liquid nitrogen, and stored at −80° C.
The inhibitory activity can be investigated by a radioligand binding assay (Sawyer et al., Br. J. Pharmocol 2002, 137, 1163-72). The radioligand binding assay was performed at room temperature in binding buffer (10 mM HEPES/KOH pH […], with protease inhibitor cocktail tablets), containing 1.5 nM [^3H]PGD2 (Amersham, 156 Cie/mmol), and 10 μg of hCRTH2 HEK293 (EBNA) cell membrane protein in a final volume of 100 μl in 96 well plates (Corning, USA). Non-specific binding was determined in the presence of 1 μM PGD2 (Cayman, USA). Competing spiro-indolinones were diluted in dimethylsulphoxide so that the total volume of dimethylsulfoxide was kept constant at 1% dimethylsulphoxide (Me2SO) Serial dilutions of 100 μM and […] were prepared. 10 μl each of these spiro-indolinone stock solutions were added. Incubation (60 min at room temperature) was terminated by rapid filtration through 96 wells hydrophobic GF/C Unifilter plates (Whatman, USA). Filters were washed twice with 250 μl of Tris-HCl pH 7.4, 10 mM MnCl2, and residual radioligand bound to the filters was mixed to 100 μl of liquid scintillation cocktail (Optiphase Supermix, Perkin Elmer, USA) and binding activity was determined by counting residual radioligand using a 1450 Micro-beta scintillation counter (Wallac, UK). The following representative compounds were tested. […]

Row | Ki (CRTH2 [1]) | inhibition (CRTH2 [3]) | Compound | inhibition in vivo at 30 mg/kg [2]
1 | 0.14 µM | – | O=C(O)CN1C(=O)C2(CC(=O)N(Cc3ccccc3F)C2)c2cc(Cl)ccc21 (centres unmarked) [Compound 115, [5-chloro-1′-(2-fluorobenzyl)-2,5′-dioxospiro[indole-3,3′-pyrrolidin]-1(2H)-yl]acetic acid] | 45%
2 | 0.028 µM | – | O=C(O)CN1C(=O)[C@@]2(CC(=O)N(Cc3ccccc3F)C2=O)c2cc(Cl)ccc21 [Compound 109, (3R)-[5-chloro-1′-(2-fluorobenzyl)-2,2′,5′-trioxospiro[indole-3,3′-pyrrolidin]-1(2H)-yl]acetic acid] | 38%
3 | – | > 70% | COCCOCN1C(=O)CC2(C1=O)C(=O)N(CC(=O)O)c1ccc(F)cc12 (centres unmarked) [[5-fluoro-1′-[(2-methoxyethoxy)methyl]-2,2′,5′-trioxospiro[indole-3,3′-pyrrolidin]-1(2H)-yl]acetic acid] | –
4 | 0.0034 µM | – | Cc1noc(-c2ccccc2)c1CN1CC2(CC1=O)C(=O)N(CC(=O)O)c1ccc(Cl)cc12 (centres unmarked) [Compound 114, [5-chloro-1′-[(3-methyl-5-phenylisoxazol-4-yl)methyl]-2,5′-dioxospiro[indole-3,3′-pyrrolidin]-1(2H)-yl]acetic acid] | 44%
5 | – | > 70% | C=CCN1C(=O)CC2(C1=O)C(=O)N(CCCC(=O)O)c1ccc(F)cc12 (centres unmarked) [4-(1′-allyl-5-fluoro-2,2′,5′-trioxospiro[indole-3,3′-pyrrolidin]-1(2H)-yl)butanoic acid] | –
6 | – | > 70% | O=C(O)CCCN1C(=O)C2(CC(=O)N(Cc3ccccc3)C2=O)c2cc(F)ccc21 (centres unmarked) [4-(1′-benzyl-5-fluoro-2,2′,5′-trioxospiro[indole-3,3′-pyrrolidin]-1(2H)-yl)butanoic acid] | –
7 | – | > 70% | O=C(O)CCCN1C(=O)C2(CC(=O)N(Cc3ccccc3)C2=O)c2cc(Cl)ccc21 (centres unmarked) [4-(1′-benzyl-5-chloro-2,2′,5′-trioxospiro[indole-3,3′-pyrrolidin]-1(2H)-yl)butanoic acid] | –
8 | – | > 70% | COCCN1C(=O)CC2(C1=O)C(=O)N(CC(=O)O)c1ccc(Cl)cc12 (centres unmarked) [[5-chloro-1′-(2-methoxyethyl)-2,2′,5′-trioxospiro[indole-3,3′-pyrrolidin]-1(2H)-yl]acetic acid] | –
9 | – | > 70% | C=CCN1C(=O)CC2(C1=O)C(=O)N(CCCC(=O)O)c1ccc(Cl)cc12 (centres unmarked) [4-(1′-allyl-5-chloro-2,2′,5′-trioxospiro[indole-3,3′-pyrrolidin]-1(2H)-yl)butanoic acid] | –
10 | – | > 70% | O=C(O)CN1C(=O)C2(CC(=O)N(Cc3ccccc3)C2=O)c2cc(F)ccc21 (centres unmarked) [(1′-benzyl-5-fluoro-2,2′,5′-trioxospiro[indole-3,3′-pyrrolidin]-1(2H)-yl)acetic acid] | –
11 | 0.47 µM | – | O=C(O)CN1C(=O)[C@]2(CC(=O)N(Cc3cc(Cl)ccc3F)C2=O)c2cc(Cl)ccc21 [Compound 111, (3S)-[5-chloro-1′-(2-fluoro-5-chlorobenzyl)-2,2′,5′-trioxospiro[indole-3,3′-pyrrolidin]-1(2H)-yl]acetic acid] | 65%
12 | 0.15 µM | – | O=C(O)CN1C(=O)[C@@]2(CC(=O)N(Cc3cc(Cl)ccc3F)C2=O)c2cc(Cl)ccc21 [Compound 112, (3R)-[5-chloro-1′-(2-fluoro-5-chlorobenzyl)-2,2′,5′-trioxospiro[indole-3,3′-pyrrolidin]-1(2H)-yl]acetic acid] | 61%
13 | – | > 70% | COc1ccc2c(c1)C1(CC(=O)N(Cc3ccccc3)C1=O)C(=O)N2CC(=O)O (centres unmarked) [(1′-benzyl-5-methoxy-2,2′,5′-trioxospiro[indole-3,3′-pyrrolidin]-1(2H)-yl)acetic acid] | –
14 | 0.63 µM | – | O=C(O)CN1C(=O)C2(CC(=O)N(Cc3ccccc3)C2)c2cc(Cl)ccc21 (centres unmarked) [Compound 113, (1′-benzyl-5-chloro-2,5′-dioxospiro[indole-3,3′-pyrrolidin]-1(2H)-yl)acetic acid] | 55%
